Reference: the NIST ThermoML archive (doi:10.1021/acs.jced.6b00430)
± gives the expanded uncertainty stated by the source.

Test: xn = mol fraction of the nth substance listed
Conditions: 100 kPa, Liquid; for electrical conductivity: Alternating current cell with electrodes; for viscosity: Capillary tube (Ostwald / Ubbelohde) method; for mass density: Vibrating tube method

O=[PH](O)O [phosphonic acid] + O
Conditions | electrical conductivity [S/m] | mass density [kg/m3] | viscosity [mPa·s]
298.15 K, x1 = 0.0122 | 7.43 ± 0.75 | 1022.04 ± 10 | 0.962 ± 0.058
298.15 K, x1 = 0.0215 | 10.4 ± 1 | 1039.69 ± 10 | 1.05 ± 0.06
298.15 K, x1 = 0.0299 | 13.4 ± 1.3 | 1055.02 ± 10 | 1.17 ± 0.07
298.15 K, x1 = 0.0403 | 16.9 ± 1.7 | 1073.24 ± 10 | –
298.15 K, x1 = 0.0451 | – | 1081.91 ± 10 | –
298.15 K, x1 = 0.0484 | 18.5 ± 1.9 | 1087.03 ± 10 | –
298.15 K, x1 = 0.0541 | 20 ± 2 | 1096.6 ± 10 | –
298.15 K, x1 = 0.0682 | 22.1 ± 2.2 | 1119.23 ± 10 | –
298.15 K, x1 = 0.0704 | 22.4 ± 2.2 | 1122.59 ± 10 | 1.64 ± 0.1
298.15 K, x1 = 0.0799 | 23.9 ± 2.4 | 1137.16 ± 10 | –
298.15 K, x1 = 0.0832 | – | 1141.9 ± 10 | –
298.15 K, x1 = 0.1011 | 25.9 ± 2.6 | 1167.81 ± 10 | 2.06 ± 0.12
298.15 K, x1 = 0.1335 | 26 ± 2.6 | 1210.62 ± 10 | 2.6 ± 0.16
298.15 K, x1 = 0.1689 | 25.7 ± 2.6 | 1252.12 ± 10 | –
298.15 K, x1 = 0.1909 | 25.2 ± 2.5 | 1275.45 ± 10 | –
298.15 K, x1 = 0.197 | 25 ± 2.5 | 1281.23 ± 10 | –
298.15 K, x1 = 0.2154 | 24.5 ± 2.5 | 1299.73 ± 10 | 4.24 ± 0.26
298.15 K, x1 = 0.2524 | 23.1 ± 2.3 | 1332.1 ± 10 | 5.19 ± 0.31
298.15 K, x1 = 0.292 | 20.7 ± 2.1 | 1363.42 ± 10 | 6.26 ± 0.38
298.15 K, x1 = 0.3959 | 15.4 ± 1.5 | 1434.35 ± 10 | –
308.15 K, x1 = 0.0122 | 7.89 ± 0.79 | 1018.53 ± 10 | 0.782 ± 0.047
308.15 K, x1 = 0.0215 | 11.3 ± 1.1 | 1035.86 ± 10 | 0.852 ± 0.051
308.15 K, x1 = 0.0299 | 14.3 ± 1.4 | 1050.95 ± 10 | 0.94 ± 0.057
308.15 K, x1 = 0.0403 | 18.4 ± 1.8 | 1068.89 ± 10 | –
308.15 K, x1 = 0.0451 | – | 1077.48 ± 10 | –
308.15 K, x1 = 0.0484 | 20 ± 2 | 1082.48 ± 10 | –
308.15 K, x1 = 0.0541 | 21.3 ± 2.1 | 1091.91 ± 10 | –
308.15 K, x1 = 0.0682 | 23.9 ± 2.4 | 1114.22 ± 10 | –
308.15 K, x1 = 0.0704 | 24.2 ± 2.4 | 1117.57 ± 10 | 1.31 ± 0.08
308.15 K, x1 = 0.0799 | 25.5 ± 2.6 | 1131.9 ± 10 | –
308.15 K, x1 = 0.0832 | – | 1136.63 ± 10 | –
308.15 K, x1 = 0.1011 | 27.4 ± 2.7 | 1162.2 ± 10 | 1.65 ± 0.1
308.15 K, x1 = 0.1335 | 28.6 ± 2.9 | 1204.48 ± 10 | 2.08 ± 0.13
308.15 K, x1 = 0.1689 | 28.5 ± 2.9 | 1245.45 ± 10 | –
308.15 K, x1 = 0.1909 | 28.5 ± 2.9 | 1268.54 ± 10 | –
308.15 K, x1 = 0.197 | 28 ± 2.8 | 1274.31 ± 10 | –
308.15 K, x1 = 0.2154 | 28 ± 2.8 | 1292.62 ± 10 | 3.32 ± 0.2
308.15 K, x1 = 0.2524 | 25.8 ± 2.6 | 1324.67 ± 10 | 4.12 ± 0.25
308.15 K, x1 = 0.292 | 23.9 ± 2.4 | 1355.74 ± 10 | 4.94 ± 0.3
308.15 K, x1 = 0.3959 | 18.5 ± 1.9 | 1426.18 ± 10 | –
318.15 K, x1 = 0.0122 | 8.18 ± 0.82 | 1013.66 ± 10 | 0.636 ± 0.038
318.15 K, x1 = 0.0215 | 11.8 ± 1.2 | 1030.98 ± 10 | 0.689 ± 0.042
318.15 K, x1 = 0.0299 | 15 ± 1.5 | 1045.97 ± 10 | 0.754 ± 0.046
318.15 K, x1 = 0.0403 | 19.2 ± 1.9 | 1063.78 ± 10 | –
318.15 K, x1 = 0.0451 | – | 1072.47 ± 10 | –
318.15 K, x1 = 0.0484 | 20.9 ± 2.1 | 1077.26 ± 10 | –
318.15 K, x1 = 0.0541 | 22.4 ± 2.2 | 1086.62 ± 10 | –
318.15 K, x1 = 0.0682 | 25.4 ± 2.5 | 1108.74 ± 10 | –
318.15 K, x1 = 0.0704 | 25.8 ± 2.6 | 1112.04 ± 10 | 1.06 ± 0.06
318.15 K, x1 = 0.0799 | 27.3 ± 2.7 | 1126.27 ± 10 | –
318.15 K, x1 = 0.0832 | – | 1130.94 ± 10 | –
318.15 K, x1 = 0.1011 | 29.7 ± 3 | 1156.21 ± 10 | 1.32 ± 0.08
318.15 K, x1 = 0.1335 | 31.3 ± 3.1 | 1198.05 ± 10 | 1.66 ± 0.1
318.15 K, x1 = 0.1689 | 31.5 ± 3.2 | 1238.7 ± 10 | –
318.15 K, x1 = 0.1909 | 31.2 ± 3.1 | 1261.54 ± 10 | –
318.15 K, x1 = 0.197 | 30.8 ± 3.1 | 1267.22 ± 10 | –
318.15 K, x1 = 0.2154 | 30 ± 3 | 1285.38 ± 10 | 2.68 ± 0.16
318.15 K, x1 = 0.2524 | 28.8 ± 2.9 | 1317.07 ± 10 | 3.27 ± 0.2
318.15 K, x1 = 0.292 | 27.2 ± 2.7 | 1347.86 ± 10 | 3.9 ± 0.24
318.15 K, x1 = 0.3959 | 21.1 ± 2.1 | 1418.01 ± 10 | –
328.15 K, x1 = 0.0122 | 8.38 ± 0.84 | 1009.46 ± 10 | 0.529 ± 0.032
328.15 K, x1 = 0.0215 | 12.1 ± 1.2 | 1026.28 ± 10 | 0.567 ± 0.034
328.15 K, x1 = 0.0299 | 15.3 ± 1.5 | 1041.02 ± 10 | 0.617 ± 0.037
328.15 K, x1 = 0.0403 | 19.6 ± 2 | 1058.55 ± 10 | –
328.15 K, x1 = 0.0451 | – | 1066.53 ± 10 | –
328.15 K, x1 = 0.0484 | 21.9 ± 2.2 | 1071.83 ± 10 | –
328.15 K, x1 = 0.0541 | 23.5 ± 2.4 | 1081.05 ± 10 | –
328.15 K, x1 = 0.0682 | 26.5 ± 2.7 | 1102.88 ± 10 | –
328.15 K, x1 = 0.0704 | 26.9 ± 2.7 | 1106.07 ± 10 | 0.866 ± 0.052
328.15 K, x1 = 0.0799 | 28.6 ± 2.9 | 1120.18 ± 10 | –
328.15 K, x1 = 0.0832 | – | 1124.84 ± 10 | –
328.15 K, x1 = 0.1011 | 31 ± 3.1 | 1149.89 ± 10 | 1.07 ± 0.06
328.15 K, x1 = 0.1335 | 33.3 ± 3.3 | 1191.35 ± 10 | 1.35 ± 0.08
328.15 K, x1 = 0.1689 | 33.8 ± 3.4 | 1231.63 ± 10 | –
328.15 K, x1 = 0.1909 | 33.3 ± 3.3 | 1254.36 ± 10 | –
328.15 K, x1 = 0.197 | 33.2 ± 3.3 | 1259.95 ± 10 | –
328.15 K, x1 = 0.2154 | 32.5 ± 3.3 | 1277.98 ± 10 | 2.2 ± 0.13
328.15 K, x1 = 0.2524 | 31.3 ± 3.1 | 1309.72 ± 10 | 2.65 ± 0.16
328.15 K, x1 = 0.292 | 30.2 ± 3 | 1340.42 ± 10 | 3.14 ± 0.19
328.15 K, x1 = 0.3959 | 24.1 ± 2.4 | 1409.83 ± 10 | –
338.15 K, x1 = 0.0122 | 8.4 ± 0.84 | 1001.4 ± 10 | 0.464 ± 0.028
338.15 K, x1 = 0.0215 | 12.2 ± 1.2 | 1018.77 ± 10 | 0.49 ± 0.03
338.15 K, x1 = 0.0299 | 15.6 ± 1.6 | 1033.72 ± 10 | 0.531 ± 0.032
338.15 K, x1 = 0.0403 | 20.3 ± 2 | 1051.48 ± 10 | –
338.15 K, x1 = 0.0451 | – | 1060.26 ± 10 | –
338.15 K, x1 = 0.0484 | 22.9 ± 2.3 | 1064.9 ± 10 | –
338.15 K, x1 = 0.0541 | 24.2 ± 2.4 | 1074.21 ± 10 | –
338.15 K, x1 = 0.0682 | 27.7 ± 2.8 | 1096.19 ± 10 | –
338.15 K, x1 = 0.0704 | 28.2 ± 2.8 | 1099.46 ± 10 | 0.749 ± 0.045
338.15 K, x1 = 0.0799 | 30 ± 3 | 1113.58 ± 10 | –
338.15 K, x1 = 0.0832 | – | 1118.32 ± 10 | –
338.15 K, x1 = 0.1011 | 32.9 ± 3.3 | 1143.23 ± 10 | 0.922 ± 0.056
338.15 K, x1 = 0.1335 | 35.3 ± 3.5 | 1184.38 ± 10 | 1.16 ± 0.07
338.15 K, x1 = 0.1689 | 35.5 ± 3.6 | 1224.52 ± 10 | –
338.15 K, x1 = 0.1909 | 35 ± 3.5 | 1246.94 ± 10 | –
338.15 K, x1 = 0.197 | 34.9 ± 3.5 | 1252.51 ± 10 | –
338.15 K, x1 = 0.2154 | 34.1 ± 3.4 | 1270.41 ± 10 | 1.88 ± 0.11
338.15 K, x1 = 0.2524 | 33.5 ± 3.4 | 1301.38 ± 10 | 2.25 ± 0.14
338.15 K, x1 = 0.292 | 32.4 ± 3.2 | 1331.63 ± 10 | 2.66 ± 0.16
338.15 K, x1 = 0.3959 | 25.9 ± 2.6 | 1401.65 ± 10 | –
